Earlier results on one molecule are cited in patent US20250177320A1 (CinRx Pharma, LLC, priority 2017, published 2025).

`Oc1cc(O)cc(O)c1` [Phloroglucinol, 1,3,5-benzenetriol]: for the setting “after an oral dose”, the “bioavailability (absorption)” value is listed as 47%. The plasma half-life (plasma) is 1.5 h. Also, for the setting “single oral dose of 160 mg”, the peak blood concentration is 677 ng/mL and the “time to peak blood concentration” value was 20 min.
